Assay results taken from PMC6272230, “Uses of 3-(2-Bromoacetyl)-2H-chromen-2-one in the Synthesis of Heterocyclic Compounds Incorporating Coumarin: Synthesis, Characterization and Cytotoxicity” (Molecules, 2015).
Like-named read-outs stand apart in the source and are kept apart here.

Assays:
[1] = tested on: human liver cancer (HA22T); assay: In vitro cytotoxicity against HA22T cells; format: cell-based; conditions: read-out: Cytotoxicity (IC50 in nM) HA22T
Procedure: (§1) The heterocyclic compounds, prepared in this study, were evaluated according to standard protocols for their in vitro cytotoxicity against six human cancer cell lines including cells derived from human gastric cancer (NUGC), human colon cancer (DLD1), human liver cancer (HA22T and HEPG2), nasopharyngeal carcinoma (HONE1), human breast cancer (MCF) and normal fibroblast cells (WI38). For comparison purposes, CHS 828, a pyridyl cyanoguanidine, was used as a standard antitumor drug (Figure 2). […] All the synthesized compounds were tested for their cytotoxicity against normal fibroblast cells.
(§2) Fetal bovine serum (FBS) and L-glutamine, were purchased from Gibco Invitrogen Co. (Scotland, UK). RPMI-1640 medium was purchased from Cambrex (East Rutherford, NJ, USA). Dimethyl sulfoxide (DMSO), CHS 828, penicillin, streptomycin and sulforhodamine B (SRB) were purchased from Sigma Chemical Co. (Saint Louis, MO, USA).
(§3) Cell cultures were obtained from the European Collection of Cell Cultures (ECACC, Salisbury, UK) and human gastric cancer (NUGC), human colon cancer (DLD1), human liver cancer (HA22T and HEPG2), human breast cancer (MCF), nasopharyngeal carcinoma (HONE1) and normal fibroblast cells (WI38) were kindly provided by the National Cancer Institute (NCI, Cairo, Egypt). They were grown as a monolayer and routinely maintained in RPMI-1640 medium supplemented with 5% heat inactivated FBS, 2 mM glutamine and antibiotics (penicillin 100 U/mL, streptomycin 100 µg/mL) at 37 °C in a humidified atmosphere containing 5% CO2. Exponentially growing cells were obtained by plating 1.5 × 10^5 cells/mL for the six human cancer cell lines followed by 24 h of incubation. The effect of the vehicle solvent (DMSO) on the growth of these cell lines was evaluated in all the experiments by exposing untreated control cells to the maximum concentration (0.5%) of DMSO used in each assay.

[2] = tested on: human breast cancer (MCF); assay: In vitro cytotoxicity against MCF cells; format: cell-based; conditions: read-out: Cytotoxicity (IC50 in nM) MCF
Procedure: as §1, §2, §3

[3] = tested on: human gastric cancer (NUGC); assay: In vitro cytotoxicity against NUGC cells; format: cell-based; conditions: read-out: Cytotoxicity (IC50 in nM) NUGC
Procedure: as §1, §2, §3

[4] = tested on: human colon cancer (DLD1); assay: In vitro cytotoxicity against DLD1 cells; format: cell-based
Procedure: as §1, §2, §3

[5] = tested on: nasopharyngeal carcinoma (HONE1); assay: In vitro cytotoxicity against HONE1 cells; format: cell-based; conditions: Homo sapiens
Procedure: as §1, §2, §3

[6] = tested on: human liver cancer (HEPG2); assay: In vitro cytotoxicity against HEPG2 cells; format: cell-based
Procedure: as §1, §2, §3

[7] = In vitro cytotoxicity against normal fibroblast cells WI38; format: cell-based; conditions: human, concentration producing 50% reduction in cell growth
Procedure: as §1, §2, §3

[8] = liver cancer, concentration producing 50% reduction in cell growth
[9] = MCF, breast cancer, concentration producing 50% reduction in cell growth
[10] = gastric cancer, concentration producing 50% reduction in cell growth
[11] = DLD-1, DLDI, colon cancer, concentration producing 50% reduction in cell growth, read-out: Cytotoxicity (IC50 in nM) DLDI
[12] = HONE1, nasopharyngeal carcinoma, concentration producing 50% reduction in cell growth, read-out: Cytotoxicity (IC50 in nM) HONE1
[13] = HEPG2, liver cancer, concentration producing 50% reduction in cell growth, read-out: Cytotoxicity (IC50 in nM) HEPG2

| melting point [°C] | SMILES | IC50 [1] [nM] | IC50 [2] [nM] | IC50 [3] [nM] | IC50 ([4]; DLD-1, read-out: Cytotoxicity (IC50 in nM) DLDI) [nM] | IC50 ([5]; HONE1, read-out: Cytotoxicity (IC50 in nM) HONE1) [nM] | IC50 ([6]; HepG2, read-out: Cytotoxicity (IC50 in nM) HEPG2) [nM] | IC50 [1, 8] [nM] | IC50 [2, 9] [nM] | IC50 [3, 10] [nM] | IC50 [4, 11] [nM] | IC50 [5, 12] [nM] | IC50 [6, 13] [nM] | IC50 [7] [nM] |
| --- | --- | --- | --- | --- | --- | --- | --- | --- | --- | --- | --- | --- | --- | --- |
| 140 to 142 | N#CC1=C(N)OC(c2cc3ccccc3oc2=O)=C(Br)C1c1ccccc1 (stereo not shown) [Compound 6a, 2-Amino-5-bromo-6-(2-oxo-2H-chromen-3-yl)-4-phenyl-4H-pyran-3-carbonitrile] |  |  |  |  |  |  | 1240 | 2180 | 1090 | 303 | 1180 | 59 |  |
| 148 to 150 | N#CC1=C(N)OC(c2cc3ccccc3oc2=O)=C(Br)C1c1ccco1 (stereo not shown) [Compound 6d, 2-Amino-5-bromo-4-(furan-2-yl)-6-(2-oxo-2H-chromen-3-yl)-4H-pyran-3-carbonitrile] |  |  |  |  |  |  | 2110 | 931 | 29 | 98 | 279 | 360 |  |
| 206 to 208 | N#CC1=C(N)NC(c2cc3ccccc3oc2=O)=C(Br)C1c1ccc(Cl)cc1 (stereo not shown) [Compound 7c, 2-Amino-5-bromo-4-(4-chlorophenyl)-6-(2-oxo-2H-chromen-3-yl)-1,4-dihydropyridine-3-carbonitrile] |  |  |  |  |  |  | 128 | 43 | 98 | 32 | 221 | 416 |  |
| 205 to 207 | N#CC1=C(N)NC(c2cc3ccccc3oc2=O)=C(Br)C1c1ccco1 (stereo not shown) [Compound 7d, 2-Amino-5-bromo-4-(furan-2-yl)-6-(2-oxo-2H-chromen-3-yl)-1,4-dihydropyridine-3-carbonitrile] |  |  |  |  |  |  | 52 | 1130 | 682 | 163 | 1190 | 2730 |  |
| 218 to 220 | Nc1cc(-c2cc3ccccc3oc2=O)n[nH]1 [Compound 9a, 3-(5-Amino-1H-pyrazol-3-yl)-2H-chromen-2-one] |  |  |  |  |  |  | 2170 | 1290 | 3470 | 48 | 442 | 359 |  |
| 158 to 160 | Nc1cc(-c2cc3ccccc3oc2=O)nn1-c1ccccc1 [Compound 9b, 3-(5-Amino-1-phenyl-1H-pyrazol-3-yl)-2H-chromen-2-one] |  |  |  |  |  |  | 1580 | 1650 | 1120 | 2240 | 4270 | 415 |  |
| 113 to 115 | COc1ccc(C2C(C#N)=C(N)OC(c3cc4ccccc4oc3=O)=C2C#N)cc1 (stereo not shown) [Compound 10b, 2-Amino-4-(4-methoxyphenyl)-6-(2-oxo-2H-chromen-3-yl)-4H-pyran-3,5-dicarbonitrile] |  |  |  |  |  |  | 89 | 2120 | 1340 | 2280 | 2180 | 1320 |  |
| 178 to 180 | N#CC1=C(N)OC(c2cc3ccccc3oc2=O)=C(C#N)C1c1ccc(Cl)cc1 (stereo not shown) [Compound 10c, 2-Amino-4-(4-chlorophenyl)-6-(2-oxo-2H-chromen-3-yl)-4H-pyran-3,5-dicarbonitrile] |  |  |  |  |  |  | 4170 | 584 | 312 | 193 | 89 | 399 |  |
| 133 to 135 | N#CC1=C(N)OC(c2cc3ccccc3oc2=O)=C(C#N)C1c1ccco1 (stereo not shown) [Compound 10d, 2-Amino-4-(furan-2-yl)-6-(2-oxo-2H-chromen-3-yl)-4H-pyran-3,5-dicarbonitrile] |  |  |  |  |  |  | 102 | 2250 | 47 | 68 | 220 | 3320 |  |
| 99 to 101 | COc1ccc(C2C(C#N)=C(N)NC(c3cc4ccccc4oc3=O)=C2C#N)cc1 (stereo not shown) [Compound 11b, 2-Amino-4-(4-methoxyphenyl)-6-(2-oxo-2H-chromen-3-yl)-1,4-dihydropyridine-3,5-dicarbonitrile] |  |  |  |  |  |  | 3060 | 39 | 124 | 58 | 1670 | 215 |  |
| 197 to 199 | N#CC1=C(N)NC(c2cc3ccccc3oc2=O)=C(C#N)C1c1ccc(Cl)cc1 (stereo not shown) [Compound 11c, 2-Amino-4-(4-chlorophenyl)-6-(2-oxo-2H-chromen-3-yl)-1,4-dihydropyridine-3,5-dicarbonitrile] |  |  |  |  |  |  | 2060 | 839 | 1280 | 483 | 1770 | 424 |  |

Continued, molecule first:

| SMILES | melting point [°C] | IC50 [1] [nM] | IC50 [2] [nM] | IC50 [3] [nM] | IC50 ([4]; DLD-1, read-out: Cytotoxicity (IC50 in nM) DLDI) [nM] | IC50 ([5]; HONE1, read-out: Cytotoxicity (IC50 in nM) HONE1) [nM] | IC50 ([6]; HepG2, read-out: Cytotoxicity (IC50 in nM) HEPG2) [nM] | IC50 [1, 8] [nM] | IC50 [2, 9] [nM] | IC50 [3, 10] [nM] | IC50 [4, 11] [nM] | IC50 [5, 12] [nM] | IC50 [6, 13] [nM] | IC50 [7] [nM] |
| --- | --- | --- | --- | --- | --- | --- | --- | --- | --- | --- | --- | --- | --- | --- |
| N#CN=C(NCCCCCCOc1ccc(Cl)cc1)Nc1ccncc1 [CHS 828, reference compound] |  | 2070 | 18 | 25 | 2320 | 15 | 1240 |  |  |  |  |  |  |  |
| O=C(C(Br)=NNc1ccccc1)c1cc2ccccc2oc1=O [Compound 2, 2-oxo-2-(2-oxo-2H-chromen-3-yl)-N'-phenylacetohydrazonoylbromide] | 88 to 90 |  |  |  |  |  |  | 1120 | 288 | 48 | 60 | 1480 | 174 |  |
| N#CC(C#N)=C(CO)c1cc2ccccc2oc1=O [Compound 3, 2-(2-Hydroxy-1-(2-oxo-2H-chromen-3-yl)ethylidene)malononitrile] | 162 to 164 |  |  |  |  |  |  | 1650 | 821 | 1160 | 1280 | 699 | 1230 | 910 |
| N#Cc1c(N)sc(Br)c1-c1cc2ccccc2oc1=O [Compound 4a, 2-Amino-5-bromo-4-(2-oxo-2H-chromen-3-yl)thiophene-3-carbonitrile] | 180 to 182 |  |  |  |  |  |  | 27 | 2060 | 32 | 50 | 228 | 221 | 780 |
| CCOC(=O)c1c(N)sc(Br)c1-c1cc2ccccc2oc1=O [Compound 4b, Ethyl 2-amino-5-bromo-4-(2-oxo-2H-chromen-3-yl)thiophene-3-carboxylate] | 177 to 179 |  |  |  |  |  |  | 219 | 1140 | 84 | 167 | 1210 | 2020 |  |
| O=c1oc2ccccc2cc1-c1cn(-c2ccccc2)c(=Nc2ccccc2)s1 [Compound 5a, 3-(3-Phenyl-2-(phenylimino)-2,3-dihydrothiazol-5-yl)-2H-chromen-2-one] | 158 to 160 |  |  |  |  |  |  | 213 | 2010 | 228 | 569 | 2050 | 1110 | 632 |
| Cc1ccc(-n2cc(-c3cc4ccccc4oc3=O)sc2=Nc2ccccc2)cc1 [Compound 5b, 3-(2-(Phenylimino)-3-(p-tolyl)-2,3-dihydrothiazol-5-yl)-2H-chromen-2-one] | 99 to 101 |  |  |  |  |  |  | 1290 | 1230 | 2210 | 1070 | 2180 | 1300 | 489 |
| COc1ccc(-n2cc(-c3cc4ccccc4oc3=O)sc2=Nc2ccccc2)cc1 [Compound 5c, 3-(3-(4-Methoxyphenyl)-2-(phenylimino)-2,3-dihydrothiazol-5-yl)-2H-chromen-2-one] | 103 to 105 |  |  |  |  |  |  | 274 | 1180 | 1620 | 396 | 670 | 2120 | 490 |
| O=c1oc2ccccc2cc1-c1cn(-c2ccc(Cl)cc2)c(=Nc2ccccc2)s1 [Compound 5d, 3-(3-(4-Chlorophenyl)-2-(phenylimino)-2,3-dihydrothiazol-5-yl)-2H-chromen-2-one] | 123 to 125 |  |  |  |  |  |  | 120 | 1260 | 38 | 163 | 441 | 3740 | 860 |
